Common to all, as to test: relative viability (nuclei count vs DMSO), 5 days (fraction); higher = more cells survive
Compound in the test “Axitinib + Pemetrexed”: CNC(=O)c1ccccc1Sc1ccc2c(/C=C/c3ccccn3)n[nH]c2c1 [Axitinib] + Nc1nc2[nH]cc(CCc3ccc(C(=O)N[C@@H](CCC(=O)O)C(=O)O)cc3)c2c(=O)[nH]1 [Pemetrexed] (partner 0.2 µM)
In outline:
(§1)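 Relative viability divides the nuclei count in treated wells by that in vehicle wells. Lung cancer cell lines were seeded in 1536-well plates, dosed by pin tool the next day, and fixed and stained after 5 days in one step with final 0.05% Triton X-100, 1% formaldehyde and 1 ug/ml Hoechst. Dosing was a single drug or a fixed anchor-drug dose plus five library-drug doses (not always all listed) in √10 steps, and values are medians of duplicate plates imaged at 4×.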

Compound in test [1]: CC1=CC=C(C=C1)C(=O)CN2C3=C(CCCC3)SC2=N [Pifithrin_alpha] + Cc1cc(Nc2cc(N3CCN(C)CC3)nc(Sc3ccc(NC(=O)C4CC4)cc3)n2)n[nH]1 [Tozasertib] (partner 0.1 µM)
The method, boiled down: as §1

Compound in the test “Axitinib + Trametinib”: CNC(=O)c1ccccc1Sc1ccc2c(/C=C/c3ccccn3)n[nH]c2c1 [Axitinib] + CC(=O)Nc1cccc(-n2c(=O)n(C3CC3)c(=O)c3c(Nc4ccc(I)cc4F)n(C)c(=O)c(C)c32)c1 [Trametinib] (partner 0.02 µM)
The method, boiled down: as §1

Compound in the test “Bemcentinib + Dasatinib”: Nc1nc(Nc2ccc3c(c2)CC[C@@H](N2CCCC2)CC3)nn1-c1cc2c(nn1)-c1ccccc1CCC2 [Bemcentinib] + Cc1nc(Nc2ncc(C(=O)Nc3c(C)cccc3Cl)s2)cc(N2CCN(CCO)CC2)n1 [Dasatinib] (partner 0.075 µM)
The method, boiled down:
as §1

Turning to RERF-LC-KJ, the relative viability came to 0.435 with Axitinib + Pemetrexed (first compound 0.005 µM); 0.443 in the test with Axitinib + Pemetrexed (first compound 0.01581 µM); 0.485 with Axitinib + Pemetrexed (first compound 0.05 µM); 0.491 in the test with Axitinib + Pemetrexed (first compound 0.1581 µM); 0.502 in the test with Axitinib + Pemetrexed (first compound 0.5 µM); 0.498 in test [1] (first compound 1 µM). The relative viability in test [1] (first compound 3.162 µM) stood at 0.412; in test [1] (first compound 10 µM), 0.308; in test [1] (first compound 31.62 µM), 0.253; in test [1] (first compound 100 µM), 0.289; with Axitinib + Trametinib (first compound 0.005 µM), 0.952; in the test with Axitinib + Trametinib (first compound 0.01581 µM) it was 0.91. In addition, the relative viability with Axitinib + Trametinib (first compound 0.05 µM) is 0.875; with Axitinib + Trametinib (first compound 0.1581 µM) it was 0.833; with Axitinib + Trametinib (first compound 0.5 µM) it was 0.966; with Bemcentinib + Dasatinib (first compound 0.04 µM) it was 0.847; with Bemcentinib + Dasatinib (first compound 0.1265 µM), 0.923; with Bemcentinib + Dasatinib (first compound 0.4 µM) it was 1.02. In addition, the relative viability is 0.964 in the test with Bemcentinib + Dasatinib (first compound 1.265 µM) and 0.85 with Bemcentinib + Dasatinib (first compound 4 µM).
For the cell line SK-LU-1, the relative viability in the test with Axitinib + Pemetrexed (first compound 0.005 µM) worked out at 1.01; with Axitinib + Pemetrexed (first compound 0.01581 µM), 1; in the test with Axitinib + Pemetrexed (first compound 0.05 µM), 1.09; with Axitinib + Pemetrexed (first compound 0.1581 µM), 1.03; with Axitinib + Pemetrexed (first compound 0.5 µM), 1.13; in test [1] (first compound 1 µM) it was 0.291. Moreover, the relative viability in test [1] (first compound 3.162 µM) came out at 0.329; in test [1] (first compound 10 µM) it was 0.291; in test [1] (first compound 100 µM), 0.316; with Axitinib + Trametinib (first compound 0.005 µM), 0.515; with Axitinib + Trametinib (first compound 0.01581 µM), 0.631; with Axitinib + Trametinib (first compound 0.05 µM) it was 0.478. Besides, the relative viability with Axitinib + Trametinib (first compound 0.1581 µM) was 0.412; with Axitinib + Trametinib (first compound 0.5 µM), 0.459; in the test with Bemcentinib + Dasatinib (first compound 0.04 µM) it was 0.181; with Bemcentinib + Dasatinib (first compound 0.1265 µM), 0.201; with Bemcentinib + Dasatinib (first compound 0.4 µM), 0.197; in the test with Bemcentinib + Dasatinib (first compound 1.265 µM) it was 0.191. In addition, the relative viability in the test with Bemcentinib + Dasatinib (first compound 4 µM) stood at 0.155.
For the cell line SK-MES-1, the relative viability with Axitinib + Pemetrexed (first compound 0.005 µM) amounted to 0.949; in the test with Axitinib + Pemetrexed (first compound 0.01581 µM), 1.03; with Axitinib + Pemetrexed (first compound 0.05 µM), 1.02; in the test with Axitinib + Pemetrexed (first compound 0.1581 µM), 1.04; with Axitinib + Pemetrexed (first compound 0.5 µM), 1.04; in test [1] (first compound 1 µM) it was 0.805. Moreover, the relative viability in test [1] (first compound 3.162 µM) turned out to be 0.749; in test [1] (first compound 10 µM), 0.613; in test [1] (first compound 31.62 µM) it was 0.392; in test [1] (first compound 100 µM), 0.404; in the test with Axitinib + Trametinib (first compound 0.005 µM), 0.553; with Axitinib + Trametinib (first compound 0.01581 µM) it was 0.562. The relative viability was 0.569 in the test with Axitinib + Trametinib (first compound 0.05 µM); 0.485 with Axitinib + Trametinib (first compound 0.1581 µM); 0.581 in the test with Axitinib + Trametinib (first compound 0.5 µM); 0.303 in the test with Bemcentinib + Dasatinib (first compound 0.04 µM); 0.416 with Bemcentinib + Dasatinib (first compound 0.1265 µM); 0.384 with Bemcentinib + Dasatinib (first compound 0.4 µM). In addition, the figures for the relative viability with Bemcentinib + Dasatinib (first compound 1.265 µM) and in the test with Bemcentinib + Dasatinib (first compound 4 µM) were 0.477 and 0.426, respectively.
As for SW 900, the relative viability worked out at 0.479 with Axitinib + Pemetrexed (first compound 0.005 µM); 0.469 with Axitinib + Pemetrexed (first compound 0.05 µM); 0.505 with Axitinib + Pemetrexed (first compound 0.1581 µM); 0.479 with Axitinib + Pemetrexed (first compound 0.5 µM); 0.53 in test [1] (first compound 1 µM); 0.358 in test [1] (first compound 3.162 µM). The relative viability came out at 0.372 in test [1] (first compound 10 µM); 0.27 in test [1] (first compound 31.62 µM); 0.364 in test [1] (first compound 100 µM); 0.915 in the test with Axitinib + Trametinib (first compound 0.005 µM); 0.926 with Axitinib + Trametinib (first compound 0.05 µM); 0.687 with Axitinib + Trametinib (first compound 0.1581 µM). Also, the relative viability with Axitinib + Trametinib (first compound 0.5 µM) was found to be 0.943; with Bemcentinib + Dasatinib (first compound 0.04 µM), 0.587; with Bemcentinib + Dasatinib (first compound 0.1265 µM) it was 0.672; in the test with Bemcentinib + Dasatinib (first compound 0.4 µM), 0.586; with Bemcentinib + Dasatinib (first compound 1.265 µM), 0.493; in the test with Bemcentinib + Dasatinib (first compound 4 µM) it was 0.563.
As for SW 1573, the relative viability was determined as 0.841 with Axitinib + Pemetrexed (first compound 0.005 µM); 0.777 with Axitinib + Pemetrexed (first compound 0.01581 µM); 0.928 with Axitinib + Pemetrexed (first compound 0.05 µM); 0.77 with Axitinib + Pemetrexed (first compound 0.1581 µM); 0.816 in the test with Axitinib + Pemetrexed (first compound 0.5 µM); 0.184 in test [1] (first compound 1 µM). The relative viability in test [1] (first compound 3.162 µM) amounted to 0.165; in test [1] (first compound 10 µM) it was 0.177; in test [1] (first compound 31.62 µM), 0.204; in test [1] (first compound 100 µM), 0.174; with Axitinib + Trametinib (first compound 0.005 µM) it was 0.525; with Axitinib + Trametinib (first compound 0.01581 µM) it was 0.558. Further, the relative viability with Axitinib + Trametinib (first compound 0.05 µM) came to 0.665; in the test with Axitinib + Trametinib (first compound 0.1581 µM), 0.521; in the test with Axitinib + Trametinib (first compound 0.5 µM), 0.611; in the test with Bemcentinib + Dasatinib (first compound 0.04 µM), 0.411; with Bemcentinib + Dasatinib (first compound 0.1265 µM), 0.52; with Bemcentinib + Dasatinib (first compound 0.4 µM), 0.611. Further, the relative viability was 0.477 with Bemcentinib + Dasatinib (first compound 1.265 µM) and 0.636 in the test with Bemcentinib + Dasatinib (first compound 4 µM).
In the case of UMC-11, the relative viability in the test with Axitinib + Pemetrexed (first compound 0.005 µM) came to 0.774; with Axitinib + Pemetrexed (first compound 0.01581 µM), 0.81; with Axitinib + Pemetrexed (first compound 0.05 µM), 0.77; in the test with Axitinib + Pemetrexed (first compound 0.1581 µM), 0.867; with Axitinib + Pemetrexed (first compound 0.5 µM), 0.81; in test [1] (first compound 1 µM), 0.179. For the same cell line, the relative viability in test [1] (first compound 3.162 µM) worked out at 0.207; in test [1] (first compound 10 µM), 0.198; in test [1] (first compound 31.62 µM) it was 0.19; in test [1] (first compound 100 µM), 0.175; with Axitinib + Trametinib (first compound 0.005 µM) it was 0.709; in the test with Axitinib + Trametinib (first compound 0.01581 µM), 0.668. In addition, the relative viability with Axitinib + Trametinib (first compound 0.05 µM) is 0.572; in the test with Axitinib + Trametinib (first compound 0.1581 µM) it was 0.691; with Axitinib + Trametinib (first compound 0.5 µM), 0.616; in the test with Bemcentinib + Dasatinib (first compound 0.04 µM), 0.462; with Bemcentinib + Dasatinib (first compound 0.1265 µM), 0.563; in the test with Bemcentinib + Dasatinib (first compound 0.4 µM), 0.559. For the same cell line, the relative viability in the test with Bemcentinib + Dasatinib (first compound 1.265 µM) was 0.466; with Bemcentinib + Dasatinib (first compound 4 µM), 0.476.

For the origin of these results see the supplement of paper PMC10307832.
